The text below walks through data of patent US9518061B2, “Substituted pyrazolylpyrazole derivative and use of same as herbicide” (KYOYU AGRI CO., LTD., priority 2013, dated 2016).

What all share (type): in vivo
One series relates to Monochoria vaginalis. Kind of series: Paddy herbicidal activity test. The note with it: irrigated paddy pot, 30 days. As to the method:
(§1) 1. Paddy Herbicidal Activity Test
(§2) Rice paddy soil was filled into a 1/10000 are pot followed by the addition of suitable amounts of water and chemical fertilizer, kneading, seeding with Echinochloa crus-galli, Monochoria vaginalis and Scirpus juncoides and maintaining in an irrigated state at a water depth of 3 cm.
(§3) Wettable powder of Target Compound (I) shown in Table 1 prepared in compliance with the preparation examples were diluted with a suitable amount of water, rice plants in the 2.0 leaf stage were transplanted during 3.5 leaf stage of Echinochloa crus-galli, and treated by dropping in chemical in the prescribed amount per are using a pipette.
(§4) After treating for 30 days in a glass greenhouse at an average atmospheric temperature of 30° C., the herbicidal efficacy thereof was investigated.
(§5) Evaluation of herbicidal efficacy was carried out by comparing growth inhibition rate (%) with an untreated group, while evaluation of phytotoxicity was carried out by comparing growth inhibition rate (%) with the state of a complete eradication group, and were evaluated at 11 levels indicated below.

Another series deals with Scirpus juncoides. Kind of series: Paddy herbicidal activity test. The following applies: irrigated paddy pot, 30 days. The method, then:
as §1, §2, §3, §4, §5

The subject of another series is Echinochloa crus-galli. Put plainly: Paddy herbicidal activity test. The note with it: irrigated paddy pot, treated at 3.5 leaf stage of Echinochloa crus-galli, 30 days. As to the method:
as §1, §2, §3, §4, §5

Another series relates to Rice plants. Kind of series: Paddy herbicidal activity test, phytotoxicity to transplanted rice. The note with it: rice transplanted in 2.0 leaf stage, 30 days. As to the method:
as §1, §2, §3, §4, §5

Series [1] concerns Chenopodium album. Kind of series: Farming soil treatment test. The note with it: soil surface spray prior to weed growth, 30 days. As to the method: (§6) 2. Farming Soil Treatment Test
(§7) Field soil was filled into a 1/6000 are pot followed by seeding with Digitaria ciliaris, Chenopodium album and Amaranthus retroflexus and covering with soil.
(§8) Wettable powder of compounds of formula (D shown in Table 1 prepared in compliance with the preparation examples were diluted with water to the prescribed amount of chemical and uniformly sprayed onto each soil surface layer using 10 liters of sprayed water per are prior to weed growth following seeding.
as §4
(§9) Evaluation of herbicidal efficacy was carried out in the same manner as the above-mentioned Test Example 1.

Series [2] has as its system Digitaria ciliaris. Put plainly: Farming soil treatment test. The note with it: soil surface spray prior to weed growth, 30 days. The method, then:
as §6, §7, §8, §4, §9

Series [3] deals with Amaranthus retroflexus. Kind of series: Farming soil treatment test. The note with it: soil surface spray prior to weed growth, 30 days. The method, then: as §6, §7, §8, §4, §9
The subject of series [4] is Chenopodium album. Put plainly: Weed foliar treatment test. The following applies: foliar spray, 3 weeks. The method, then:
(§10) 3. Weed Foliar Treatment Test
(§11) Soil was filled into a 1/6000 are pot followed by seeding with Digitaria ciliaris, Chenopodium album and Amaranthus retroflexus, covering with soil, and cultivating in a glass greenhouse at an average atmospheric temperature of 25° C.
(§12) Wettable powder of Target Compound (I) shown in Table 1 prepared in compliance with the preparation examples were diluted with water to the prescribed amount of chemical and uniformly sprayed onto the weeds using 15 liters of sprayed water per are when Digitaria ciliaris had grown to the 1.0 to 2.0 leaf stage.
(§13) After treating for 3 weeks in a glass greenhouse at an average atmospheric temperature of 25° C., the herbicidal efficacy thereof was investigated.
as §9

The subject of series [5] is Digitaria ciliaris. Put plainly: Weed foliar treatment test. The note with it: foliar spray at 1.0 to 2.0 leaf stage of Digitaria ciliaris, 3 weeks. As to the method: as §10, §11, §12, §13, §9
Series [6] deals with Amaranthus retroflexus. Kind of series: Weed foliar treatment test. The following applies: foliar spray, 3 weeks. The method, then: as §10, §11, §12, §13, §9

With `CCN(C(=O)C(F)(F)F)c1c(C#N)cnn1-c1nn2c(c1Cl)CCCC2` [Control agent 4.238], the “herbicidal efficacy (growth inhibition rate level) Monochoria vaginalis” value in the series with Monochoria vaginalis (1g a.i./10a) is 0 (0 (exponent): 0% to less than 10% (growth inhibition rate)); in the series on Monochoria vaginalis (5g a.i./10a), 1 (10% to less than 20%). For the same compound, the “herbicidal efficacy (growth inhibition rate level) Scirpus juncoides” value is on record as 2 (20% to less than 30%) with Scirpus juncoides (1g a.i./10a) and 3 (30% to less than 40%) in the series on Scirpus juncoides (5g a.i./10a). Besides, the “herbicidal efficacy (growth inhibition rate level) Echinochloa crus-galli” value in the series with Echinochloa crus-galli (1g a.i./10a) was 2 (20% to less than 30%); in the series with Echinochloa crus-galli (5g a.i./10a) it was 4 (40% to less than 50%). Moreover, the “phytotoxicity (growth inhibition rate level) Rice plants” value in the series on Rice plants (1g a.i./10a) and in the series with Rice plants (5g a.i./10a) was 2 (20% to less than 30%) throughout. Besides, the “herbicidal efficacy (growth inhibition rate level) Chenopodium album” value is recorded as 4 (40% to less than 50%) in the series on Chenopodium album [1] (5g a.i./10a), 5 (50% to less than 60%) with Chenopodium album [1] (10g a.i./10a), 4 (40% to less than 50%) in the series with Chenopodium album [4] (5g a.i./10a) and 6 (60% to less than 70%) with Chenopodium album [4] (10g a.i./10a). Further, the “herbicidal efficacy (growth inhibition rate level) Digitaria ciliaris” value in the series with Digitaria ciliaris [2] (5g a.i./10a) was 5 (50% to less than 60%); in the series on Digitaria ciliaris [2] (10g a.i./10a), 6 (60% to less than 70%); in the series on Digitaria ciliaris [5] (5g a.i./10a) it was 4 (40% to less than 50%); in the series with Digitaria ciliaris [5] (10g a.i./10a), 5 (50% to less than 60%). Besides, the “herbicidal efficacy (growth inhibition rate level) Amaranthus retroflexus” value was 4 (40% to less than 50%) in the series on Amaranthus retroflexus [3] (5g a.i./10a), 5 (50% to less than 60%) in the series with Amaranthus retroflexus [3] (10g a.i./10a), 5 (50% to less than 60%) with Amaranthus retroflexus [6] (5g a.i./10a) and 6 (60% to less than 70%) in the series on Amaranthus retroflexus [6] (10g a.i./10a).

With `N#Cc1cnn(-c2nn3c(c2Cl)CCCC3)c1N(CCCCl)C(=O)C(F)(F)F` [Compound 3], the figures for the “herbicidal efficacy (growth inhibition rate level) Monochoria vaginalis” value with Monochoria vaginalis (1g a.i./10a) and with Monochoria vaginalis (5g a.i./10a) were 7 (70% to less than 80%) and 8 (80% to less than 90%), respectively. For the same compound, the “herbicidal efficacy (growth inhibition rate level) Scirpus juncoides” value in the series on Scirpus juncoides (1g a.i./10a) and in the series with Scirpus juncoides (5g a.i./10a) was 8 (80% to less than 90%) throughout. The “herbicidal efficacy (growth inhibition rate level) Echinochloa crus-galli” value in the series with Echinochloa crus-galli (1g a.i./10a) was 8 (80% to less than 90%); in the series with Echinochloa crus-galli (5g a.i./10a) it was 9 (90% to less than 100%). The “phytotoxicity (growth inhibition rate level) Rice plants” value in the series with Rice plants (1g a.i./10a) and in the series with Rice plants (5g a.i./10a) was 1 (10% to less than 20%) each time.

For the compound `COCCN(C(=O)C(F)(F)F)c1c(C#N)cnn1-c1nn2c(c1Br)CCCC2` [Compound 13], the “herbicidal efficacy (growth inhibition rate level) Monochoria vaginalis” value with Monochoria vaginalis (1g a.i./10a) is 8 (80% to less than 90%); in the series on Monochoria vaginalis (5g a.i./10a), 9 (90% to less than 100%). The “herbicidal efficacy (growth inhibition rate level) Scirpus juncoides” value is 7 (70% to less than 80%) in the series on Scirpus juncoides (1g a.i./10a) and 8 (80% to less than 90%) in the series with Scirpus juncoides (5g a.i./10a). Further, the “herbicidal efficacy (growth inhibition rate level) Echinochloa crus-galli” value with Echinochloa crus-galli (1g a.i./10a) and in the series with Echinochloa crus-galli (5g a.i./10a) was 9 (90% to less than 100%) throughout. In addition, the “phytotoxicity (growth inhibition rate level) Rice plants” value with Rice plants (1g a.i./10a) was 0 (0 (exponent): 0% to less than 10% (growth inhibition rate)); with Rice plants (5g a.i./10a), 1 (10% to less than 20%).

Consider `N#Cc1cnn(-c2nn3c(c2Br)CCCC3)c1N(CCC(F)(F)F)C(=O)C(F)(F)F` [Compound 18], for which the “herbicidal efficacy (growth inhibition rate level) Monochoria vaginalis” value in the series with Monochoria vaginalis (1g a.i./10a) was 7 (70% to less than 80%); in the series on Monochoria vaginalis (5g a.i./10a), 8 (80% to less than 90%). Further, the “herbicidal efficacy (growth inhibition rate level) Scirpus juncoides” value with Scirpus juncoides (1g a.i./10a) and in the series with Scirpus juncoides (5g a.i./10a) was 9 (90% to less than 100%) in each case. Also, the “herbicidal efficacy (growth inhibition rate level) Echinochloa crus-galli” value with Echinochloa crus-galli (1g a.i./10a) is 9 (90% to less than 100%); with Echinochloa crus-galli (5g a.i./10a), 10 (100%). In addition, the “phytotoxicity (growth inhibition rate level) Rice plants” value with Rice plants (1g a.i./10a) is 0 (0 (exponent): 0% to less than 10% (growth inhibition rate)); in the series with Rice plants (5g a.i./10a) it was 1 (10% to less than 20%).

With `N#Cc1cnn(-c2nn3c(c2Cl)CCCC3)c1N(CCC(F)(F)F)C(=O)C(F)(F)C(F)(F)F` [Compound 7], the entries for the “herbicidal efficacy (growth inhibition rate level) Monochoria vaginalis” value with Monochoria vaginalis (1g a.i./10a) and in the series on Monochoria vaginalis (5g a.i./10a) were 7 (70% to less than 80%) and 9 (90% to less than 100%), respectively. Moreover, the “herbicidal efficacy (growth inhibition rate level) Scirpus juncoides” value in the series with Scirpus juncoides (1g a.i./10a) and in the series on Scirpus juncoides (5g a.i./10a) was 8 (80% to less than 90%) throughout. For the same compound, the “herbicidal efficacy (growth inhibition rate level) Echinochloa crus-galli” value with Echinochloa crus-galli (1g a.i./10a) and in the series with Echinochloa crus-galli (5g a.i./10a) was 9 (90% to less than 100%) in each case. In addition, the “phytotoxicity (growth inhibition rate level) Rice plants” value in the series on Rice plants (1g a.i./10a) and with Rice plants (5g a.i./10a) was 0 (0 (exponent): 0% to less than 10% (growth inhibition rate)) each time.

Take `COCCCN(C(=O)C(F)(F)F)c1c(C#N)cnn1-c1nn2c(c1Cl)CCCC2` [Compound 6]: the “herbicidal efficacy (growth inhibition rate level) Monochoria vaginalis” value was 8 (80% to less than 90%) with Monochoria vaginalis (1g a.i./10a) and 9 (90% to less than 100%) in the series with Monochoria vaginalis (5g a.i./10a). Besides, the “herbicidal efficacy (growth inhibition rate level) Scirpus juncoides” value is 7 (70% to less than 80%) with Scirpus juncoides (1g a.i./10a) and 8 (80% to less than 90%) in the series on Scirpus juncoides (5g a.i./10a). Moreover, the “herbicidal efficacy (growth inhibition rate level) Echinochloa crus-galli” value in the series on Echinochloa crus-galli (1g a.i./10a) was 9 (90% to less than 100%); with Echinochloa crus-galli (5g a.i./10a) it was 10 (100%). Further, the “phytotoxicity (growth inhibition rate level) Rice plants” value in the series with Rice plants (1g a.i./10a) and with Rice plants (5g a.i./10a) was 0 (0 (exponent): 0% to less than 10% (growth inhibition rate)) in each case.

On to `COCCN(C(=O)C(F)(F)F)c1c([N+](=O)[O-])cnn1-c1nn2c(c1Br)CCCC2` [Compound 23], for which the “herbicidal efficacy (growth inhibition rate level) Monochoria vaginalis” value in the series on Monochoria vaginalis (1g a.i./10a) and with Monochoria vaginalis (5g a.i./10a) was 8 (80% to less than 90%) in each case. The “herbicidal efficacy (growth inhibition rate level) Scirpus juncoides” value in the series on Scirpus juncoides (1g a.i./10a) and in the series on Scirpus juncoides (5g a.i./10a) was 8 (80% to less than 90%) in each case. In addition, the “herbicidal efficacy (growth inhibition rate level) Echinochloa crus-galli” value in the series on Echinochloa crus-galli (1g a.i./10a) is 7 (70% to less than 80%); in the series with Echinochloa crus-galli (5g a.i./10a) it was 8 (80% to less than 90%). Further, the “phytotoxicity (growth inhibition rate level) Rice plants” value with Rice plants (1g a.i./10a) and in the series on Rice plants (5g a.i./10a) was 0 (0 (exponent): 0% to less than 10% (growth inhibition rate)) throughout.

In the case of `COCCCN(C(=O)C(F)(F)F)c1c(C#N)cnn1-c1nn2c(c1Br)CCCC2` [Compound 15], the “herbicidal efficacy (growth inhibition rate level) Monochoria vaginalis” value in the series with Monochoria vaginalis (1g a.i./10a) and with Monochoria vaginalis (5g a.i./10a) was 8 (80% to less than 90%) in each case. In addition, the “herbicidal efficacy (growth inhibition rate level) Scirpus juncoides” value is 8 (80% to less than 90%) with Scirpus juncoides (1g a.i./10a) and 9 (90% to less than 100%) in the series on Scirpus juncoides (5g a.i./10a). Moreover, the “herbicidal efficacy (growth inhibition rate level) Echinochloa crus-galli” value in the series with Echinochloa crus-galli (1g a.i./10a) is given as 9 (90% to less than 100%); in the series with Echinochloa crus-galli (5g a.i./10a), 10 (100%). Moreover, the “phytotoxicity (growth inhibition rate level) Rice plants” value with Rice plants (1g a.i./10a) is listed as 0 (0 (exponent): 0% to less than 10% (growth inhibition rate)); with Rice plants (5g a.i./10a) it was 1 (10% to less than 20%).
